Experimental data taken from the NIST ThermoML archive (doi:10.1021/je034223r).
± gives the expanded uncertainty stated by the source.

Assays:
[1] = xn = mol fraction of the nth substance listed; settings: 298.15 K, 101.3 kPa, Liquid, vibrating tube
[2] = refractive index (Na D-line) (dimensionless); xn = mol fraction of the nth substance listed; settings: 298.15 K, 101.3 kPa, Liquid, refractometer
[3] = heat capacity at constant pressure per volume; xn = mol fraction of the nth substance listed; settings: 298.15 K, 101.3 kPa, Liquid, Flow calorimetry
[4] = excess molar enthalpy (molar enthalpy of mixing); xn = mol fraction of the nth substance listed; settings: 298.15 K, 101.3 kPa, Liquid, Flow calorimetry

## O=C1CCCC1 [cyclopentanone] + C1COCO1
[1]; x2 = 0.0808
  mass density: 951.41 ± 0.49 kg/m3
[1]; x2 = 0.1586
  mass density: 958.77 ± 0.49 kg/m3
[1]; x2 = 0.2251
  mass density: 965.28 ± 0.49 kg/m3
[1]; x2 = 0.3113
  mass density: 974.02 ± 0.5 kg/m3
[1]; x2 = 0.3507
  mass density: 978.14 ± 0.5 kg/m3
[1]; x2 = 0.4024
  mass density: 983.65 ± 0.5 kg/m3
[1]; x2 = 0.4295
  mass density: 986.6 ± 0.5 kg/m3
[1]; x2 = 0.4749
  mass density: 991.62 ± 0.51 kg/m3
[1]; x2 = 0.509
  mass density: 995.47 ± 0.51 kg/m3
[1]; x2 = 0.5451
  mass density: 999.61 ± 0.51 kg/m3
[1]; x2 = 0.5465
  mass density: 999.76 ± 0.51 kg/m3
[1]; x2 = 0.5891
  mass density: 1004.75 ± 0.51 kg/m3
[1]; x2 = 0.6248
  mass density: 1009 ± 0.51 kg/m3
[1]; x2 = 0.6813
  mass density: 1015.89 ± 0.52 kg/m3
[1]; x2 = 0.7075
  mass density: 1019.14 ± 0.52 kg/m3
[1]; x2 = 0.7891
  mass density: 1029.57 ± 0.52 kg/m3
[1]; x2 = 0.8629
  mass density: 1039.38 ± 0.53 kg/m3
[2]; x2 = 0.0815
  refractive index: 1.43248 ± 0.00021
[2]; x2 = 0.1569
  refractive index: 1.43014 ± 0.00021
[2]; x2 = 0.2322
  refractive index: 1.42774 ± 0.00021
[2]; x2 = 0.3155
  refractive index: 1.425 ± 0.00021
[2]; x2 = 0.3526
  refractive index: 1.42375 ± 0.00021
[2]; x2 = 0.3965
  refractive index: 1.42224 ± 0.00021
[2]; x2 = 0.4345
  refractive index: 1.42091 ± 0.00021
[2]; x2 = 0.4742
  refractive index: 1.41949 ± 0.00021
[2]; x2 = 0.5109
  refractive index: 1.41816 ± 0.00021
[2]; x2 = 0.5558
  refractive index: 1.4165 ± 0.00021
[2]; x2 = 0.5858
  refractive index: 1.41537 ± 0.00021
[2]; x2 = 0.6334
  refractive index: 1.41355 ± 0.00021
[2]; x2 = 0.6716
  refractive index: 1.41206 ± 0.00021
[2]; x2 = 0.7127
  refractive index: 1.41042 ± 0.00021
[2]; x2 = 0.7862
  refractive index: 1.4074 ± 0.00021
[2]; x2 = 0.8695
  refractive index: 1.40385 ± 0.00021
[2]; x2 = 0.9509
  refractive index: 1.40023 ± 0.00021
[3]; x2 = 0.0645
  heat capacity: 1713700 ± 2700 J/K/m3
[3]; x2 = 0.1429
  heat capacity: 1716000 ± 2700 J/K/m3
[3]; x2 = 0.3008
  heat capacity: 1720700 ± 2700 J/K/m3
[3]; x2 = 0.3817
  heat capacity: 1723100 ± 2700 J/K/m3
[3]; x2 = 0.4603
  heat capacity: 1725400 ± 2700 J/K/m3
[3]; x2 = 0.5381
  heat capacity: 1727400 ± 2700 J/K/m3
[3]; x2 = 0.6191
  heat capacity: 1729600 ± 2700 J/K/m3
[3]; x2 = 0.6973
  heat capacity: 1731600 ± 2700 J/K/m3
[3]; x2 = 0.8468
  heat capacity: 1734900 ± 2700 J/K/m3
[3]; x2 = 0.928
  heat capacity: 1736500 ± 2700 J/K/m3
[4]; x2 = 0.1
  excess molar enthalpy: -0.000954 ± 0.000194 kcal/mol
[4]; x2 = 0.2
  excess molar enthalpy: -0.00204 ± 0.000203 kcal/mol
[4]; x2 = 0.3
  excess molar enthalpy: -0.0033 ± 0.000213 kcal/mol
[4]; x2 = 0.4
  excess molar enthalpy: -0.00437 ± 0.00022 kcal/mol
[4]; x2 = 0.5
  excess molar enthalpy: -0.00521 ± 0.000227 kcal/mol
[4]; x2 = 0.6
  excess molar enthalpy: -0.00564 ± 0.000229 kcal/mol
[4]; x2 = 0.7
  excess molar enthalpy: -0.00548 ± 0.000229 kcal/mol
[4]; x2 = 0.8
  excess molar enthalpy: -0.00463 ± 0.000222 kcal/mol
[4]; x2 = 0.9
  excess molar enthalpy: -0.00288 ± 0.00021 kcal/mol

## CCCC(C)=O [pentan-2-one] + C1COCO1
[1]; x2 = 0.0882
  mass density: 816.74 ± 0.42 kg/m3
[1]; x2 = 0.1647
  mass density: 830.91 ± 0.43 kg/m3
[1]; x2 = 0.2307
  mass density: 843.79 ± 0.43 kg/m3
[1]; x2 = 0.3499
  mass density: 868.72 ± 0.44 kg/m3
[1]; x2 = 0.3798
  mass density: 875.35 ± 0.45 kg/m3
[1]; x2 = 0.4314
  mass density: 887.14 ± 0.45 kg/m3
[1]; x2 = 0.4631
  mass density: 894.63 ± 0.46 kg/m3
[1]; x2 = 0.5169
  mass density: 907.82 ± 0.46 kg/m3
[1]; x2 = 0.5183
  mass density: 908.18 ± 0.46 kg/m3
[1]; x2 = 0.5529
  mass density: 916.98 ± 0.47 kg/m3
[1]; x2 = 0.5897
  mass density: 926.62 ± 0.47 kg/m3
[1]; x2 = 0.6338
  mass density: 938.59 ± 0.48 kg/m3
[1]; x2 = 0.6667
  mass density: 947.78 ± 0.48 kg/m3
[1]; x2 = 0.7131
  mass density: 961.29 ± 0.49 kg/m3
[1]; x2 = 0.7174
  mass density: 962.55 ± 0.49 kg/m3
[1]; x2 = 0.7909
  mass density: 985.17 ± 0.5 kg/m3
[1]; x2 = 0.8704
  mass density: 1011.41 ± 0.52 kg/m3
[1]; x2 = 0.9486
  mass density: 1039.18 ± 0.53 kg/m3
[2]; x2 = 0.0759
  refractive index: 1.3885 ± 0.00021
[2]; x2 = 0.1654
  refractive index: 1.38924 ± 0.00021
[2]; x2 = 0.2333
  refractive index: 1.38982 ± 0.00021
[2]; x2 = 0.3134
  refractive index: 1.39054 ± 0.00021
[2]; x2 = 0.3532
  refractive index: 1.39091 ± 0.00021
[2]; x2 = 0.3984
  refractive index: 1.39134 ± 0.00021
[2]; x2 = 0.431
  refractive index: 1.39166 ± 0.00021
[2]; x2 = 0.4741
  refractive index: 1.39208 ± 0.00021
[2]; x2 = 0.5178
  refractive index: 1.39252 ± 0.00021
[2]; x2 = 0.5578
  refractive index: 1.39293 ± 0.00021
[2]; x2 = 0.5924
  refractive index: 1.39329 ± 0.00021
[2]; x2 = 0.6321
  refractive index: 1.39372 ± 0.00021
[2]; x2 = 0.6761
  refractive index: 1.39419 ± 0.00021
[2]; x2 = 0.7128
  refractive index: 1.3946 ± 0.00021
[2]; x2 = 0.7928
  refractive index: 1.3955 ± 0.00021
[2]; x2 = 0.9448
  refractive index: 1.3973 ± 0.00021
[3]; x2 = 0.0638
  heat capacity: 1709600 ± 2600 J/K/m3
[3]; x2 = 0.1404
  heat capacity: 1711100 ± 2700 J/K/m3
[3]; x2 = 0.2192
  heat capacity: 1712900 ± 2700 J/K/m3
[3]; x2 = 0.2981
  heat capacity: 1714700 ± 2700 J/K/m3
[3]; x2 = 0.3819
  heat capacity: 1716700 ± 2700 J/K/m3
[3]; x2 = 0.4598
  heat capacity: 1719100 ± 2700 J/K/m3
[3]; x2 = 0.5386
  heat capacity: 1721800 ± 2700 J/K/m3
[3]; x2 = 0.6171
  heat capacity: 1724700 ± 2700 J/K/m3
[3]; x2 = 0.6915
  heat capacity: 1727300 ± 2700 J/K/m3
[3]; x2 = 0.7737
  heat capacity: 1730500 ± 2700 J/K/m3
[3]; x2 = 0.8546
  heat capacity: 1733700 ± 2700 J/K/m3
[3]; x2 = 0.9324
  heat capacity: 1736700 ± 2700 J/K/m3
[4]; x2 = 0.1
  excess molar enthalpy: 0.0128 ± 0.000311 kcal/mol
[4]; x2 = 0.15
  excess molar enthalpy: 0.0196 ± 0.000359 kcal/mol
[4]; x2 = 0.2
  excess molar enthalpy: 0.0266 ± 0.000406 kcal/mol
[4]; x2 = 0.25
  excess molar enthalpy: 0.0329 ± 0.000454 kcal/mol
[4]; x2 = 0.3
  excess molar enthalpy: 0.0375 ± 0.000478 kcal/mol
[4]; x2 = 0.35
  excess molar enthalpy: 0.0424 ± 0.000526 kcal/mol
[4]; x2 = 0.4
  excess molar enthalpy: 0.0462 ± 0.00055 kcal/mol
[4]; x2 = 0.45
  excess molar enthalpy: 0.0492 ± 0.000574 kcal/mol
[4]; x2 = 0.5
  excess molar enthalpy: 0.0504 ± 0.000574 kcal/mol
[4]; x2 = 0.55
  excess molar enthalpy: 0.0506 ± 0.000574 kcal/mol
[4]; x2 = 0.6
  excess molar enthalpy: 0.0498 ± 0.000574 kcal/mol
[4]; x2 = 0.65
  excess molar enthalpy: 0.0479 ± 0.000574 kcal/mol
[4]; x2 = 0.7
  excess molar enthalpy: 0.0449 ± 0.00055 kcal/mol
[4]; x2 = 0.75
  excess molar enthalpy: 0.0407 ± 0.000502 kcal/mol
[4]; x2 = 0.8
  excess molar enthalpy: 0.0353 ± 0.000478 kcal/mol
[4]; x2 = 0.85
  excess molar enthalpy: 0.0286 ± 0.00043 kcal/mol
[4]; x2 = 0.9
  excess molar enthalpy: 0.0205 ± 0.000382 kcal/mol
